The record followed here is patent US11267826B2, “Penicillin-binding protein inhibitors” (priority 2017, dated 2022).

The subject of assay [1] is hyper-permeable E. coli 901C. The assay can be described thus: Broth microdilution MIC assay, hyper-permeable E. coli. In kind it is cell-based. Particulars: Escherichia coli, read-out: E. coli 901C MIC. In short, it runs like this:
(§1)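 Per CLSI: log-phase cultures (3-5 h, 37° C) seeded at 5×10^5 CFU/mL into cation-supplemented Mueller-Hinton broth containing 2-fold compound dilutions. After 16-20 h at 37° C, MIC taken visually as lowest growth-free well, for S. aureus ATCC 29213 and E. coli 901C.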
On the technique in general: Dilution methods test growth across graded concentrations, often in twofold steps.

Assay [2] has as its system E. coli DH5a harboring VIM-2. The assay can be described thus: Broth microdilution MIC, engineered E. coli expressing VIM-2. In kind it is cell-based. Particulars: Escherichia coli, read-out: MIC, β-lactamase VIM. The procedure: (§2) To determine the ability of test compounds to potentiate the inhibition of the growth of bacterial strains, classic cell based broth microdilution MIC assays were employed. MIC assays are performed according to CLSI methods except where otherwise noted (CLSI, 2011 and CLSI, 2009). The reference strain S. aureus ATCC 29213 and the hyper-permeable E. coli 901C were used to determine the ability of the PBP compounds to inhibit bacterial growth. Briefly, cryo-preserved bacterial cultures of clinical strains are streaked for isolation on appropriate agar medium, in this case Mueller Hinton II agar. Following incubation to allow formation of colonies these plates are sealed with parafilm and stored refrigerated for up to two weeks. For preparation of assay inocula and to ensure low variability, at least 5 colonies are picked from the agar plates with an inoculating loop and aseptically transferred to a culture tube containing 3 mL of Mueller-Hinton Broth (supplemented with divalent cations to required levels based on Manufacturers' certification). The broth culture is grown for 3-5 hours at 37° C. with shaking at 200 rpm. Meanwhile, 2-fold serial dilutions of test compounds are conducted in a 96 well plate with a final volume of 75 μL per well at 2-fold the final desired concentration. After the dilution plates are set up the growing cultures are then diluted in a cuvette containing MH II broth and the optical density is measured at 600 nm. Inocula are diluted such that 75 μL of this culture in Mueller-Hinton Broth results in a starting bacterial concentration of 5×10^5 CFU/mL when added to the dilution plates. The plates are incubated 16-20 hours at 37° C. The MIC is read visually as the lowest concentration well with no bacterial growth.
(§3) To determine if test compounds were affected by various known β-lactamases, the inhibition of the growth of engineered strains of Escherichia coli harboring select single β-lactamases were tested. […]

The subject of assay [3] is E. coli DH5a harboring NDM-1. The assay can be described thus: Broth microdilution MIC, engineered E. coli expressing NDM-1. In kind it is cell-based. Particulars: Escherichia coli, read-out: MIC, β-lactamase NDM. How it is done: as §2, §3
The subject of assay [4] is E. coli DH5a harboring CTX-M15. The assay can be described thus: Broth microdilution MIC, engineered E. coli expressing CTX-M15. In kind it is cell-based. Conditions: Escherichia coli, read-out: MIC, β-lactamase CTXM. The procedure: as §2, §3
Assay [5] concerns E. coli DH5a harboring IMP-18. The assay can be described thus: Broth microdilution MIC, engineered E. coli expressing IMP-18. In kind it is cell-based. Particulars: Escherichia coli, read-out: MIC, β-lactamase IMP. The procedure:
as §2, §3

In assay [6] the test system is E. coli DH5a harboring KPC-2. The assay can be described thus: microbe, parasite or virus in culture. In kind it is cell-based. Particulars: Escherichia coli, read-out: MIC, β-lactamase KPC. How it is done: To determine the ability of test compounds to potentiate the inhibition of the growth of bacterial strains, classic cell based broth microdilution MIC assays were employed. MIC assays are performed according to CLSI methods except where otherwise noted (CLSI, 2011 and CLSI, 2009). The reference strain S. aureus ATCC 29213 and the hyper-permeable E. coli 901C were used to determine the ability of the PBP compounds to inhibit bacterial growth. Briefly, cryo-preserved bacterial cultures of clinical strains are streaked for isolation on appropriate agar medium, in this case Mueller Hinton II agar. Following incubation to allow formation of colonies these plates are sealed with parafilm and stored refrigerated for up to two weeks. For preparation of assay inocula and to ensure low variability, at least 5 colonies are picked from the agar plates with an inoculating loop and aseptically transferred to a culture tube containing 3 mL of Mueller-Hinton Broth (supplemented with divalent cations to required levels based on Manufacturers' certification). The broth culture is grown for 3-5 hours at 37° C. with shaking at 200 rpm. […] After the dilution plates are set up the growing cultures are then diluted in a cuvette containing MH II broth and the optical density is measured at 600 nm. […] The MIC is read visually as the lowest concentration well with no bacterial growth. […]

For assay [7], the system named is S. aureus ATCC 29213. The assay can be described thus: Broth microdilution MIC assay, S. aureus. In kind it is cell-based. Particulars: Staphylococcus aureus, ATCC29213; broth microdilution, 16-20 hours at 37° C.; read-out: S. aureus 29213 MIC. In short, it runs like this:
as §1

The subject of assay [8] is engineered strains of Escherichia coli harboring select single β-lactamases. The assay can be described thus: MIC across the panel of engineered E. coli strains harboring select single β-lactamases. In kind it is cell-based. Particulars: strains expressing β-lactamases compared with control strain, result in words. The procedure:
To determine if test compounds were affected by various known β-lactamases, the inhibition of the growth of engineered strains of Escherichia coli harboring select single β-lactamases were tested. These strains were constructed by cloning the gene encoding the particular β-lactamase into the NdeI and BamHI restriction endonuclease sites of plasmid pLBII, placing the gene(s) under the control of the Lac promoter.

In assay [9] the test system is E. coli DH5a harboring OXA-48. The assay can be described thus: Broth microdilution MIC, engineered E. coli expressing OXA-48. In kind it is cell-based. Particulars: Escherichia coli, read-out: MIC, β-lactamase OXA. The procedure:
as §2, §3

Assay [10] deals with T1, E. coli PBP2 (Escherichia coli, UniProt P0AD65).
T1 construct: 100 μg's of total membrane protein extracts containing PBPs; endogenous in cells; host or cells: Escherichia coli K12, membrane protein fraction
The assay can be described thus: Bocillin FL competition binding assay, PBP2. Also noted: species or system Escherichia coli K12. Conditions: 15 min pre-incubation. In short, it runs like this:
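E. coli K12 membrane extracts (100 µg protein) pre-incubated 15 min with compound (0.005–2,480 µg/mL) in pH 7 phosphate/350 mM NaCl, then labelled with Bocillin FL 30 min at 35°C; SDS-PAGE fluorescence (ex 450/em 520 nm), μg/mL reported. PBP1a/1b unresolved, reported combined.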

A value given as a limit tells only on which side of the number the result lay.

T1 sequence (P0AD65 whole entry): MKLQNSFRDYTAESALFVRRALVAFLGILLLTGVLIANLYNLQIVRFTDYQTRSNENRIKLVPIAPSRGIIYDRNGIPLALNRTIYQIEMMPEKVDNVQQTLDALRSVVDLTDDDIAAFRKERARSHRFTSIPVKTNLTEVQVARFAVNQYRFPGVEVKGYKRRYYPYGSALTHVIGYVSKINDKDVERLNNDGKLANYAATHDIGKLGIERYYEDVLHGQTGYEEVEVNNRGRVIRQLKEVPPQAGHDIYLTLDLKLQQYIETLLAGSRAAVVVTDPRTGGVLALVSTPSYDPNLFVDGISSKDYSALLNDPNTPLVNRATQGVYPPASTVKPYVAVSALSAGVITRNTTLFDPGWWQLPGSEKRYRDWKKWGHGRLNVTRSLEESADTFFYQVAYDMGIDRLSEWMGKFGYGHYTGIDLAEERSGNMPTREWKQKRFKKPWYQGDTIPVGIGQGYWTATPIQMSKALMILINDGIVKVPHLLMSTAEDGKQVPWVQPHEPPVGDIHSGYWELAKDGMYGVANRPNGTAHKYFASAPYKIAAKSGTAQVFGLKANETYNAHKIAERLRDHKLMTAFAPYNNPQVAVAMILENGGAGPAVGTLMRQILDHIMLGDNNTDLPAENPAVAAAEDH

On to `Nc1nc(/C(=N/O)C(=O)N[C@H]2Cc3cccc(C(=O)O)c3OB2O)cs1` [Example 6, (R,Z)-3-(2-(2-aminothiazol-4-yl)-2-(hydroxyimino)acetamido)-2-hydroxy-3,4-dihydro-2H-benzo[e][1,2]oxaborinine-8-carboxylic Acid], for which the MIC in [1] is below 64 µg/mL; in [2], 16 µg/mL; in assay [3] it was 16 µg/mL; in assay [4] it was 16 µg/mL; in assay [5], 16 µg/mL; in assay [6], 16 µg/mL. Further, the values for the MIC in assay [7] and in assay [9] were below 64 µg/mL and 16 µg/mL, respectively. Moreover, the “Effect of expressed β-lactamase on MIC” value in assay [8] was “the same MIC values in strains regardless of the β-lactamase expressed”. In addition, the “E. coli PBP2 Potency” value in [10] is “B (B represents a potency between 64 and 1000 μg/mL inclusive)”.
